Results as given in patent US10905769B2, “Peptide and peptide mimetic binding antagonists of polo-like kinase 1 polo box domain and methods of use” (priority 2015, dated 2021).
Read-outs that look alike come from different tables or passages of the source. Peptide text beside a SMILES is read from it.

Key:
Plk1 PBD [1] = molecular target: T1, Plk1 PBD (Homo sapiens, UniProt P53350); experiment: biochemical; format: binding; design: and Plk1 PBD (Plasmid #41162) (45) linked to a 3× myc tagged; host or cells: HEK293T, crude cytosolic lysate; details: Cell Lysate ELISA IC50 (μM)
Method: HEK293T cells were plated on 10 cm culture dishes at 4M cells per plate. Following 24 h, the cells were transfected with 10 μg of plasmid DNA using 20 μL of TurboFect transfection reagent (Pierce Biotechnology) according to the manufacturer's instructions. Following 24 h, the cells were harvested using trypsin, washed with phosphate-buffered saline (PBS) 7.4 buffer, and lysed in lysis buffer (PBS 7.4+0.5% NP-40+protease/phosphatase inhibitor cocktail (Pierce Biotechnology)) using 3 freeze/thaw cycles. The lysed suspension was centrifuged at 10,000×G for 10 minutes to pellet membrane proteins and nuclei. The supernatant was removed to provide a crude cytosolic lysate containing expressed myc-tagged Plk1 or Plk1 PBD. The total protein concetration was determined using a Bicinchoninic Acid (BCA) assay kit (Pierce Biotechnology).
All assay steps were performed at room temperature with gentle shaking. A biotinylated phosphopeptide (sequence: Biotin-Ahx-PMQS(pT)PLN-NH2) (46-48) was diluted with PBS 7.4 to 1 μM (from a 10 mM dimethylsulfoxide (DMSO) stock solution) and loaded onto the wells of a 96-well Neutravidin-coated plate (Pierce Biotechnology) at 100 μL per well for 1 hour. The wells were washed once with 150 μL PBST (PBS 7.4+0.05% Tween-20), and then 100 μL of 1% bovine serum albumin (BSA) in PBS 7.4 (blocking buffer) were added for 1 hour. The cytosolic lysate containing myc-tagged protein was diluted to 300 μg/mL in PBS 7.4 containing protease/phosphatase inhibitors (Pierce Biotechnology), mixed with competitive inhibitor (from a 10× stock in 5% DMSO/PBS), and allowed to pre-incubate for 1 h (100 μL per well in a 96-well plate, 30 μg total protein). The blocked ELISA plate was washed 2× with PBST (150 μL) and the pre-incubated lysates were added to the plate to incubate for 1 hour. The wells were washed 4× with PBST (150 μL), then probed with anti-myc primary antibody (1:1500 dilution for assays that include macrocyclic peptidomimetic ligand of the present disclosure and 1:3000 dilution for all other assays, mouse monoclonal, Pierce Biotechnology) for 1 hour. […] The wells were then washed 5× with PBST (150 μL) and incubated with Turbo TMB-ELISA solution (Pierce Biotechnology) until the desired absorbance is reached (5-10 minutes). The reaction was quenched by the addition of 2M aq. H2SO4 and the absorbance was measured at 450 nm using a BioTek Synergy 2 96-well plate reader.
Compounds were evaluated for inhibition of Plk1 PBD binding to a pThrcontaining peptide by ELISA in cell lysates and by inhibition of cell proliferation in HeLa cells. Pmab=2(S)-amino-3(R)-methyl-4-phosphonobutanoic acid.
Target sequence in this assay (P53350 326-603 limits assumed): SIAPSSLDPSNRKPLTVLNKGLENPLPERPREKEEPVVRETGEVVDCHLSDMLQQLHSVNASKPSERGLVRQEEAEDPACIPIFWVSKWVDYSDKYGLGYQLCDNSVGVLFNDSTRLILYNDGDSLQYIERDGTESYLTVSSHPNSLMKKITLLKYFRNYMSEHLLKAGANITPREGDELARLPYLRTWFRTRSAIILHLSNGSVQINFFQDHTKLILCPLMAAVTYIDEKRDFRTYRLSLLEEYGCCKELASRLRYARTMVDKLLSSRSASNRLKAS

full-length Plk1 = molecular target: T2, full-length Plk1 (Homo sapiens, UniProt P53350); experiment: ELISA inhibition assay: full-length Plk1 binding to immobilized pThr-containing peptide; details: FIG. 5A/5B
T2 construct: Plasmids encoding full length Plk1 (Plasmid #41160); host or cells: HEK293T, crude cytosolic lysate

Plk1 PBD [2] = molecular target: T1, Plk1 PBD; format: binding; design: host or cells: HEK293T, crude cytosolic lysate; details: average ± SEM from five independent experiments
Target sequence in this assay (P53350 whole entry): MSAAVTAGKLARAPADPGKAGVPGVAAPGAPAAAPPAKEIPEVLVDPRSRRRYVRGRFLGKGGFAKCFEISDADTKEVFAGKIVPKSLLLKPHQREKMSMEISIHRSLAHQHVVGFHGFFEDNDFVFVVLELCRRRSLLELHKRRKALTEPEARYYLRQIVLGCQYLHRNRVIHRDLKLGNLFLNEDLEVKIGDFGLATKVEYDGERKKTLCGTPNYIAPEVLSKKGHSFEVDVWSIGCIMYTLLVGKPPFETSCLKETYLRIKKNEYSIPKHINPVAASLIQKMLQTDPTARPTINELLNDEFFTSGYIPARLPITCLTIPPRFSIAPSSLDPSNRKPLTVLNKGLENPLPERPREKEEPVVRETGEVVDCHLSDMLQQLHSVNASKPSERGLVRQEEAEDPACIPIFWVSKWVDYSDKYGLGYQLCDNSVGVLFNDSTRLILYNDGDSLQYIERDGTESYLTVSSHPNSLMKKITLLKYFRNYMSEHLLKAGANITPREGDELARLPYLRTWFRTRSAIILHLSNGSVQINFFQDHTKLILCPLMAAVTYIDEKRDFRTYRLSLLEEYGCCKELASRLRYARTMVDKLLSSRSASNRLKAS
Method: All assay steps were performed at room temperature with gentle shaking. A biotinylated phosphopeptide (sequence: Biotin-Ahx-PMQS(pT)PLN-NH2) (46-48) was diluted with PBS 7.4 to 1 μM (from a 10 mM dimethylsulfoxide (DMSO) stock solution) and loaded onto the wells of a 96-well Neutravidin-coated plate (Pierce Biotechnology) at 100 μL per well for 1 hour. The wells were washed once with 150 μL PBST (PBS 7.4+0.05% Tween-20), and then 100 μL of 1% bovine serum albumin (BSA) in PBS 7.4 (blocking buffer) were added for 1 hour. The cytosolic lysate containing myc-tagged protein was diluted to 300 μg/mL in PBS 7.4 containing protease/phosphatase inhibitors (Pierce Biotechnology), mixed with competitive inhibitor (from a 10× stock in 5% DMSO/PBS), and allowed to pre-incubate for 1 h (100 μL per well in a 96-well plate, 30 μg total protein). […] The wells were then washed 5× with PBST (150 μL) and incubated with Turbo TMB-ELISA solution (Pierce Biotechnology) until the desired absorbance is reached (5-10 minutes). […] H2SO4 and the absorbance was measured at 450 nm using a BioTek Synergy 2 96-well plate reader.
Absorbance was plotted versus concentration (log M) and fit to a non-linear regression using GraphPad Prism 6 software (model: log(inhibitor) vs. response—Variable slope (four parameters)) to provide IC50 values. […]

[3] = Table 7, compounds 2 and 3 tested simultaneously for direct comparison

T2 sequence (P53350 whole entry): as above

`CC(=O)N1CCCC1C(=O)N[C@@H](CC(C)C)C(=O)N[C@@H](Cc1cncn1CCc1ccccc1)C(=O)N[C@@H](CO)C(=O)NC(C(N)=O)C(C)OP(=O)(O)O` (stereo in doubt) [compound 3] was tested, and the IC50 (Plk1 PBD [1]; Table 6) was 0.017 µM and the IC50 (Plk1 PBD [1]; [3]) was 0.023 µM.
For `CC(=O)N1CCC[C@H]1C(=O)N[C@@H](CC(C)C)C(=O)N[C@H]1C[C@H](CCCCCCCCc2ccccc2)C(=O)NCCC[C@@H](C(N)=O)NC(=O)[C@H]([C@@H](C)OP=O)NC(=O)[C@H](CO)NC1=O` (some centres unmarked) [15a, cPLE*SpTO] (HELM PEPTIDE1{[ac].P.L.[O=C([C@H](C[C@H](CCCCCCCCc1ccccc1)C(=O)[*:3])N[*:1])[*:2]].S.[C[C@@H](OP=O)[C@H](N[*:1])C(=O)[*:2]].[Orn].[am]}$PEPTIDE1,PEPTIDE1,4:R3-7:R3$$$V2.0), the “inhibitory potency in competitive ELISA versus parent peptide 1 (4j)” value (full-length Plk1) was “improved potencies versus the parent peptide 1”.
In the case of `CC(=O)N1CCC[C@H]1C(=O)N[C@@H](CC(C)C)C(=O)N[C@H]1C[C@H](CCCCCCCCc2ccccc2)C(=O)NCCC[C@@H](C(N)=O)NC(=O)[C@H]([C@@H](C)OP=O)NC(=O)[C@H](CO)NC1=O` (some centres unmarked) [15b, cPLE*SpTo] (HELM PEPTIDE1{[ac].P.L.[O=C([C@H](C[C@H](CCCCCCCCc1ccccc1)C(=O)[*:3])N[*:1])[*:2]].S.[C[C@@H](OP=O)[C@H](N[*:1])C(=O)[*:2]].[Orn].[am]}$PEPTIDE1,PEPTIDE1,4:R3-7:R3$$$V2.0), the “inhibitory potency in competitive ELISA versus parent peptide 1 (4j)” value (full-length Plk1) is reported as “dramatic reductions in potency”.
Work on `CC(=O)N1CCC[C@H]1C(=O)N[C@@H](CC(C)C)C(=O)N[C@@H](Cc1cncn1CCCCCCCCc1ccccc1)C(=O)N[C@@H](CO)C(=O)N[C@H](C(N)=O)[C@@H](Cc1ccccc1)CP(=O)(O)O` [18d] (HELM PEPTIDE1{[ac].P.L.[O=C([C@H](Cc1cncn1CCCCCCCCc1ccccc1)N[*:1])[*:2]].S.[O=C([C@@H](N[*:1])[C@@H](Cc1ccccc1)CP(=O)(O)O)[*:2]].[am]}$$$$V2.0; N-terminus assumed) yielded an IC50 (Plk1 PBD [2]) of 300 ± 80 nM.
For `CC(=O)N1CCC[C@H]1C(=O)N[C@@H](CC(C)C)C(=O)N[C@H]1C[C@H](CCCCCCCCc2ccccc2)C(=O)NCCCC[C@@H](C(N)=O)NC(=O)[C@H]([C@@H](C)OP=O)NC(=O)[C@H](CO)NC1=O` (some centres unmarked) [15c, cPLE*SpTK] (HELM PEPTIDE1{[ac].P.L.[O=C([C@H](C[C@H](CCCCCCCCc1ccccc1)C(=O)[*:3])N[*:1])[*:2]].S.[C[C@@H](OP=O)[C@H](N[*:1])C(=O)[*:2]].K.[am]}$PEPTIDE1,PEPTIDE1,4:R3-7:R3$$$V2.0), the “inhibitory potency in competitive ELISA versus parent peptide 1 (4j)” value (full-length Plk1) was “improved potencies versus the parent peptide 1”.
With `CC(=O)N1CCC[C@H]1C(=O)N[C@@H](CC(C)C)C(=O)N[C@@H](Cc1cncn1CCCCCCCCc1ccccc1)C(=O)N[C@@H](CO)C(=O)N[C@H](C(N)=O)[C@@H](CCc1ccccc1)CP(=O)(O)O` [18e] (HELM PEPTIDE1{[ac].P.L.[O=C([C@H](Cc1cncn1CCCCCCCCc1ccccc1)N[*:1])[*:2]].S.[O=C([C@@H](N[*:1])[C@@H](CCc1ccccc1)CP(=O)(O)O)[*:2]].[am]}$$$$V2.0; N-terminus assumed) the IC50 (Plk1 PBD [2]) was 70 ± 20 nM.
In the case of `CC(=O)N1CCCC1C(=O)N[C@@H](CC(C)C)C(=O)N[C@@H](Cc1cnc[nH]1)C(=O)N[C@@H](CO)C(=O)NC(C(N)=O)[C@@H](Cc1ccccc1)CP(=O)(O)O` (some centres unmarked) [compound 15] (HELM PEPTIDE1{[ac].[O=C(C1CCCN1[*:1])[*:2]].L.H.S.[O=C(C(N[*:1])[C@@H](Cc1ccccc1)CP(=O)(O)O)[*:2]].[am]}$$$$V2.0), the IC50 (Plk1 PBD [1]; [3]) is reported as 50 µM.
Compound `CC(=O)N1CCCC1C(=O)N[C@@H](CC(C)C)C(=O)N[C@@H](Cc1cncn1CCc1ccccc1)C(=O)N[C@@H](CO)C(=O)NC(C(N)=O)C(C)CP(=O)(O)O` (some centres unmarked) [compound 4] has an IC50 (Plk1 PBD [1]; Table 6) of 0.02 µM.
`CC(=O)N1CCC[C@H]1C(=O)N[C@@H](CC(C)C)C(=O)N[C@H]1C[C@H](CCCCCCCCc2ccccc2)C(=O)NCCCC[C@H](C(N)=O)NC(=O)[C@H]([C@@H](C)OP=O)NC(=O)[C@H](CO)NC1=O` (some centres unmarked) [15d, cPLE*SpTk] (HELM PEPTIDE1{[ac].P.L.[O=C([C@H](C[C@H](CCCCCCCCc1ccccc1)C(=O)[*:3])N[*:1])[*:2]].S.[C[C@@H](OP=O)[C@H](N[*:1])C(=O)[*:2]].[dK].[am]}$PEPTIDE1,PEPTIDE1,4:R3-7:R3$$$V2.0) was tested, and the “inhibitory potency in competitive ELISA versus parent peptide 1 (4j)” value (full-length Plk1) was “dramatic reductions in potency”.
Work on `CC(=O)N1CCCC1C(=O)N[C@@H](CC(C)C)C(=O)N[C@@H](Cc1cncn1CCc1ccccc1)C(=O)N[C@@H](CO)C(=O)NC(C(N)=O)[C@@H](Cc1ccccc1)CP(=O)(O)O` (some centres unmarked) [compound 16] yielded an IC50 (Plk1 PBD [1]; [3]) of 0.035 µM.
